Each compound was assayed against PTK2B (human) (UniProt Q14289) (assay: radiometric filter-binding kinase assay, Kinase HotSpot). Details: compound 0.5 µM; ATP 10 µM.
With `N/C(=N\N=C/c1ccc(-c2cccc([N+](=O)[O-])c2)o1)N[N+](=O)[O-]` the residual activity was 91.5%.

Each compound was assayed against TGFBR2 (human) (UniProt P37173) in the same assay as above. Details: compound 0.5 µM; ATP 10 µM.
`FC(F)(F)c1ccc(/C=C/c2nc(COc3ccc(CCCCn4ccnn4)cc3)co2)cc1` gave a residual activity of 103%.
With `O=c1cc(N2CCOCC2)oc2c(-c3ccccc3)cccc12` the residual activity was 142%.
In the case of `COc1cc2c(Nc3ccc(Br)cc3F)ncnc2cc1OCC1CCN(C)CC1`, the residual activity is reported as 102%.
`N/C(=N\N=C/c1ccc(-c2cccc([N+](=O)[O-])c2)o1)N[N+](=O)[O-]` gave a residual activity of 123%.

The compounds below were run against STK33 (human) (UniProt Q9BYT3) in the same assay as above. Details: compound 0.5 µM; ATP 10 µM.
`FC(F)(F)c1ccc(/C=C/c2nc(COc3ccc(CCCCn4ccnn4)cc3)co2)cc1` gave a residual activity of 93.7%.
`CN[C@@H]1C[C@H]2O[C@@](C)([C@@H]1OC)n1c3ccccc3c3c4c(c5c6ccccc6n2c5c31)C(=O)NC4` showed a residual activity of 10.7%.
With `O=c1cc(N2CCOCC2)oc2c(-c3ccccc3)cccc12` the residual activity was 92.1%.
`COc1cc2c(Nc3ccc(Br)cc3F)ncnc2cc1OCC1CCN(C)CC1` was tested, and the residual activity was 85.1%.
With `N/C(=N\N=C/c1ccc(-c2cccc([N+](=O)[O-])c2)o1)N[N+](=O)[O-]` the residual activity was 102%.

The compounds below were run against STK3 (human) (UniProt Q13188) in the same assay as above. Details: compound 0.5 µM; ATP 10 µM.
Compound `FC(F)(F)c1ccc(/C=C/c2nc(COc3ccc(CCCCn4ccnn4)cc3)co2)cc1` has a residual activity of 95.5%.
Work on `COc1cc2c(Nc3ccc(Br)cc3F)ncnc2cc1OCC1CCN(C)CC1` yielded a residual activity of 97.5%.
In the case of `N/C(=N\N=C/c1ccc(-c2cccc([N+](=O)[O-])c2)o1)N[N+](=O)[O-]`, the residual activity is reported as 100%.

Each compound was assayed against HIPK4 (human) (UniProt Q8NE63) in the same assay as above. Details: compound 0.5 µM; ATP 10 µM.
Sequence of HIPK4 (human) (Q8NE63 whole entry, looked up): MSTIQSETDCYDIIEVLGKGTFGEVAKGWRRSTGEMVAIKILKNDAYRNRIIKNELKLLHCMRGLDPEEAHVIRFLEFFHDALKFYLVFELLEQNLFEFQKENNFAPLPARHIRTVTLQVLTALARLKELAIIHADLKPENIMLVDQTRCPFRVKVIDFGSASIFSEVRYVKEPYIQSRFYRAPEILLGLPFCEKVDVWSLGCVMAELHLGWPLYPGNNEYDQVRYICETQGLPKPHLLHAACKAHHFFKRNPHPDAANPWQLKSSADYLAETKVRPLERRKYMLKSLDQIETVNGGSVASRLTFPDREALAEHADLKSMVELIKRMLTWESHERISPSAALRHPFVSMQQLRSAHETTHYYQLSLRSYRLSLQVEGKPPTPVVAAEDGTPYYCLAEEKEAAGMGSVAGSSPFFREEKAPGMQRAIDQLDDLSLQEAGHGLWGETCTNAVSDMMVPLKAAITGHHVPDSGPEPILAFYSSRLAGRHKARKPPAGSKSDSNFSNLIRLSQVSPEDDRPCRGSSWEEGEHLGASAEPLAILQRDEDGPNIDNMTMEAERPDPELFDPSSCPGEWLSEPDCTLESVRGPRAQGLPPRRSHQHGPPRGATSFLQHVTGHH
Compound `FC(F)(F)c1ccc(/C=C/c2nc(COc3ccc(CCCCn4ccnn4)cc3)co2)cc1` has a residual activity of 105%.
`O=c1cc(N2CCOCC2)oc2c(-c3ccccc3)cccc12` showed a residual activity of 102%.
In the case of `COc1cc2c(Nc3ccc(Br)cc3F)ncnc2cc1OCC1CCN(C)CC1`, the residual activity is reported as 100%.
`N/C(=N\N=C/c1ccc(-c2cccc([N+](=O)[O-])c2)o1)N[N+](=O)[O-]` was tested, and the residual activity was 102%.

The compounds below were run against CAMKK1 (human) (UniProt Q8N5S9) in the same assay as above. Details: compound 0.5 µM; ATP 10 µM.
Sequence of CAMKK1 (human) (Q8N5S9 whole entry, looked up): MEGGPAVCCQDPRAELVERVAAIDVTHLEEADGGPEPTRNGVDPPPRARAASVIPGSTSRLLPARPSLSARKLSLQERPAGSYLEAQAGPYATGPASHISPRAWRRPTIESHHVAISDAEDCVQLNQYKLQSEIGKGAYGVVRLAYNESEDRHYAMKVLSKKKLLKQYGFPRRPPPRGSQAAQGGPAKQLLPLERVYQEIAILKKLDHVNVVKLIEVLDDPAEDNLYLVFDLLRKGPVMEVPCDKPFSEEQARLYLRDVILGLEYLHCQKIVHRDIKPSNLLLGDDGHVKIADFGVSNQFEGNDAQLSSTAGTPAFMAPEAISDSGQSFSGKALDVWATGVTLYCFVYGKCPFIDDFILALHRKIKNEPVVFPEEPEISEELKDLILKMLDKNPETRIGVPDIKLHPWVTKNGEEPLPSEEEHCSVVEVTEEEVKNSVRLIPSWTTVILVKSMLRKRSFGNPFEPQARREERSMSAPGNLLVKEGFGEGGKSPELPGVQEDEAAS
`FC(F)(F)c1ccc(/C=C/c2nc(COc3ccc(CCCCn4ccnn4)cc3)co2)cc1` showed a residual activity of 96.7%.
For `CN[C@@H]1C[C@H]2O[C@@](C)([C@@H]1OC)n1c3ccccc3c3c4c(c5c6ccccc6n2c5c31)C(=O)NC4`, the residual activity was -3.13%.
With `O=c1cc(N2CCOCC2)oc2c(-c3ccccc3)cccc12` the residual activity was 105%.
With `COc1cc2c(Nc3ccc(Br)cc3F)ncnc2cc1OCC1CCN(C)CC1` the residual activity was 90.4%.
`N/C(=N\N=C/c1ccc(-c2cccc([N+](=O)[O-])c2)o1)N[N+](=O)[O-]` gave a residual activity of 106%.

These compounds were tested against NEK2 (human) (UniProt P51955) in the same assay as above. Details: compound 0.5 µM; ATP 10 µM.
`FC(F)(F)c1ccc(/C=C/c2nc(COc3ccc(CCCCn4ccnn4)cc3)co2)cc1` was tested, and the residual activity was 96.2%.
For `O=c1cc(N2CCOCC2)oc2c(-c3ccccc3)cccc12`, the residual activity was 89.8%.
Compound `COc1cc2c(Nc3ccc(Br)cc3F)ncnc2cc1OCC1CCN(C)CC1` has a residual activity of 103%.
For `N/C(=N\N=C/c1ccc(-c2cccc([N+](=O)[O-])c2)o1)N[N+](=O)[O-]`, the residual activity was 88.9%.

Each compound was assayed against JAK2 JH1 JH2 (human) (UniProt O60674) in the same assay as above. Details: compound 0.5 µM; ATP 10 µM.
Sequence of JAK2 JH1 JH2 (human) (O60674 whole entry, looked up): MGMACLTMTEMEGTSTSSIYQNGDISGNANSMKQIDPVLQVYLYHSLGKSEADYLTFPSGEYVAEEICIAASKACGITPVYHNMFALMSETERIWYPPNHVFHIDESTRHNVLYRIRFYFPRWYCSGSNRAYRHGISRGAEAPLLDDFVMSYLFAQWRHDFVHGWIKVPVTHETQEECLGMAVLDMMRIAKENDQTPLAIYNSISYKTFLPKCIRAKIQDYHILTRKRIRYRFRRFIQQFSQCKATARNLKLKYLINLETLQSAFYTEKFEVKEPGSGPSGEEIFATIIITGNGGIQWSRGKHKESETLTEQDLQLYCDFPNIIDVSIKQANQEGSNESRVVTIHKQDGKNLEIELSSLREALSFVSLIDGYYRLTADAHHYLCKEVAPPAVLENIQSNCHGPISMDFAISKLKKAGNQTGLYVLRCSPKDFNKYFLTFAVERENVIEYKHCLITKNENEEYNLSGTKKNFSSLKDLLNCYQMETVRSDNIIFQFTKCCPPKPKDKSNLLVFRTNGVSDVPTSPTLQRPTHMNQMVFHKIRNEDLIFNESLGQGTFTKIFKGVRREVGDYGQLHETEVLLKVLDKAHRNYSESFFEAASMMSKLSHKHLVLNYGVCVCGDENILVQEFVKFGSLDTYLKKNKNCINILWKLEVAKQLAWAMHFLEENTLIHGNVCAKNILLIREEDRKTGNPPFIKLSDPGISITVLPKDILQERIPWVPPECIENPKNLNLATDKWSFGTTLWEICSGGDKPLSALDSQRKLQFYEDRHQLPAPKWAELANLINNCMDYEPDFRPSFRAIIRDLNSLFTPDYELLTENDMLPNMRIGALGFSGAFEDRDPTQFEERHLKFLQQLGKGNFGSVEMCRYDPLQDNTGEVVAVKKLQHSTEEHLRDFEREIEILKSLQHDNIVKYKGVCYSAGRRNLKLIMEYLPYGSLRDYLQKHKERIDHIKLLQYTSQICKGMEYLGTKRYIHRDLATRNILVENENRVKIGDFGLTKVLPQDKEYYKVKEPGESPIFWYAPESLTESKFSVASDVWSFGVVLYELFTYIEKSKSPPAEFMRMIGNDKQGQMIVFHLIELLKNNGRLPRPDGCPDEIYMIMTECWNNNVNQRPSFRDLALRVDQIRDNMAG
Work on `FC(F)(F)c1ccc(/C=C/c2nc(COc3ccc(CCCCn4ccnn4)cc3)co2)cc1` yielded a residual activity of 98.9%.
For `O=c1cc(N2CCOCC2)oc2c(-c3ccccc3)cccc12`, the residual activity was 95.1%.
`COc1cc2c(Nc3ccc(Br)cc3F)ncnc2cc1OCC1CCN(C)CC1` gave a residual activity of 102%.
`N/C(=N\N=C/c1ccc(-c2cccc([N+](=O)[O-])c2)o1)N[N+](=O)[O-]` gave a residual activity of 98.8%.

The compounds below were run against EPHA2 (human) (UniProt P29317) in the same assay as above. Details: compound 0.5 µM; ATP 10 µM.
Sequence of EPHA2 (human) (P29317 whole entry, looked up): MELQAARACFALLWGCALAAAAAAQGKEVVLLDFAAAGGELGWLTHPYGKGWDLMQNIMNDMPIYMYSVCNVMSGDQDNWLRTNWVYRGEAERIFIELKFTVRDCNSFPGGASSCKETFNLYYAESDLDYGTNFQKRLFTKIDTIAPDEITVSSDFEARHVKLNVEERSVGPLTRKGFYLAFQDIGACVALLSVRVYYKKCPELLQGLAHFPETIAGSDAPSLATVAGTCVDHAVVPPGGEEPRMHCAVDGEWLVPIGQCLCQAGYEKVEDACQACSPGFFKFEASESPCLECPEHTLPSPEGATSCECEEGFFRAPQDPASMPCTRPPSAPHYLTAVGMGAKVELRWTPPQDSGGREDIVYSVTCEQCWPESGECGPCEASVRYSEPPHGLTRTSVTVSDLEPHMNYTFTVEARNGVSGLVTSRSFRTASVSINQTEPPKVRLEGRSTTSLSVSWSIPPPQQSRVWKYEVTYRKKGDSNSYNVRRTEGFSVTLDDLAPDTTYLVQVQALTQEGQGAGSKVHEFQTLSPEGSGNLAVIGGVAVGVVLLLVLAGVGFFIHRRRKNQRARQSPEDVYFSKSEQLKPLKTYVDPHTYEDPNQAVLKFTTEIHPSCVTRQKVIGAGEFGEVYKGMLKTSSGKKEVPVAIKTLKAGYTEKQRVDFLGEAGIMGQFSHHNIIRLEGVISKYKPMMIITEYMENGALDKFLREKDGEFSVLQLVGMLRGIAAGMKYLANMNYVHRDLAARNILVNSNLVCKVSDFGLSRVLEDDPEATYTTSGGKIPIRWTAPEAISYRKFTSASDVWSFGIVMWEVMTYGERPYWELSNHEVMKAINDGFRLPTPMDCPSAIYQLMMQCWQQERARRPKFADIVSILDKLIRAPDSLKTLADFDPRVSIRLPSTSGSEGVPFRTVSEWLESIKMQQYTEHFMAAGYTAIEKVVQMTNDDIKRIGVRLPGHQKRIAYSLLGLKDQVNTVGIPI
In the case of `FC(F)(F)c1ccc(/C=C/c2nc(COc3ccc(CCCCn4ccnn4)cc3)co2)cc1`, the residual activity is reported as 102%.
With `CN[C@@H]1C[C@H]2O[C@@](C)([C@@H]1OC)n1c3ccccc3c3c4c(c5c6ccccc6n2c5c31)C(=O)NC4` the residual activity was 21.3%.
Work on `O=c1cc(N2CCOCC2)oc2c(-c3ccccc3)cccc12` yielded a residual activity of 104%.
In the case of `COc1cc2c(Nc3ccc(Br)cc3F)ncnc2cc1OCC1CCN(C)CC1`, the residual activity is reported as 21.5%.

The compounds below were run against HIPK3 (human) (UniProt Q9H422) in the same assay as above. Details: compound 0.5 µM; ATP 10 µM.
Sequence of HIPK3 (human) (Q9H422 whole entry, looked up): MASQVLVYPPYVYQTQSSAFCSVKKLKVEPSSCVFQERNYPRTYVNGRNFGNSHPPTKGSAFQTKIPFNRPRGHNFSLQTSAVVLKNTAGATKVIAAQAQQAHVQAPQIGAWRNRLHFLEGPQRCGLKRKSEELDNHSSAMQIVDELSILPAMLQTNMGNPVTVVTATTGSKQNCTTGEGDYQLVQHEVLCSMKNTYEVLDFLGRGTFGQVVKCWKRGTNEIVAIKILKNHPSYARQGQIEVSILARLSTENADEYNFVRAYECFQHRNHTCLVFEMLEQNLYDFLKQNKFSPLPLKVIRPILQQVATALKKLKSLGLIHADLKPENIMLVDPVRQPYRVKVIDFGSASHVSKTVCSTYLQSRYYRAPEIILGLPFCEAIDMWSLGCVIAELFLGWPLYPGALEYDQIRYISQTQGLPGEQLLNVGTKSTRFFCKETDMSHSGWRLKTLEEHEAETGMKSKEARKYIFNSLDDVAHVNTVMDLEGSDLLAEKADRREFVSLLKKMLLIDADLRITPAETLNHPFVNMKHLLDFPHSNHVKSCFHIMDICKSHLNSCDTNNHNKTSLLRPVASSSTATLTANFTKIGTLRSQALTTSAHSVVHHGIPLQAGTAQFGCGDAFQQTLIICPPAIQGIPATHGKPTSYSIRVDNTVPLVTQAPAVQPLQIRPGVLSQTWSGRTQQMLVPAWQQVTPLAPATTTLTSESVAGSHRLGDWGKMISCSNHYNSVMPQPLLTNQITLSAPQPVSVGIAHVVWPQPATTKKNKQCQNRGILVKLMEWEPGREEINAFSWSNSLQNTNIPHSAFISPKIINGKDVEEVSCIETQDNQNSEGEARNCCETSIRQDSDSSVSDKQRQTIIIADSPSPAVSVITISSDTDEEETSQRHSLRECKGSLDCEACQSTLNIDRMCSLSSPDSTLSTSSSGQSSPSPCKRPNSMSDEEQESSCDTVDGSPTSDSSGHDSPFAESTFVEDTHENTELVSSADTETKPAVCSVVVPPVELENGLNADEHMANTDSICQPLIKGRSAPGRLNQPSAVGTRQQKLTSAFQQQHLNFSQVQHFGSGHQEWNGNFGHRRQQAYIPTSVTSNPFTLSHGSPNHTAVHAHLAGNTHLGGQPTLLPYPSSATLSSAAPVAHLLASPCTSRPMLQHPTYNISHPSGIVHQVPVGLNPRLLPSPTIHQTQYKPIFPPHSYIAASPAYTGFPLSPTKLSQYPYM
With `FC(F)(F)c1ccc(/C=C/c2nc(COc3ccc(CCCCn4ccnn4)cc3)co2)cc1` the residual activity was 100%.
For `O=c1cc(N2CCOCC2)oc2c(-c3ccccc3)cccc12`, the residual activity was 120%.
Compound `COc1cc2c(Nc3ccc(Br)cc3F)ncnc2cc1OCC1CCN(C)CC1` has a residual activity of 99.5%.

The compounds below were run against CSNK1G1 (human) (UniProt Q9HCP0) in the same assay as above. Details: compound 0.5 µM; ATP 10 µM.
For `FC(F)(F)c1ccc(/C=C/c2nc(COc3ccc(CCCCn4ccnn4)cc3)co2)cc1`, the residual activity was 100%.
Work on `O=c1cc(N2CCOCC2)oc2c(-c3ccccc3)cccc12` yielded a residual activity of 104%.
In the case of `COc1cc2c(Nc3ccc(Br)cc3F)ncnc2cc1OCC1CCN(C)CC1`, the residual activity is reported as 100%.
`N/C(=N\N=C/c1ccc(-c2cccc([N+](=O)[O-])c2)o1)N[N+](=O)[O-]` showed a residual activity of 96.4%.

What follows are compounds tested against RPS6KA2 KD1 KD2 (human) (UniProt Q15349) in the same assay as above. Details: compound 0.5 µM; ATP 10 µM.
In the case of `FC(F)(F)c1ccc(/C=C/c2nc(COc3ccc(CCCCn4ccnn4)cc3)co2)cc1`, the residual activity is reported as 96.8%.
For `O=c1cc(N2CCOCC2)oc2c(-c3ccccc3)cccc12`, the residual activity was 92.4%.
In the case of `COc1cc2c(Nc3ccc(Br)cc3F)ncnc2cc1OCC1CCN(C)CC1`, the residual activity is reported as 85.9%.
Work on `N/C(=N\N=C/c1ccc(-c2cccc([N+](=O)[O-])c2)o1)N[N+](=O)[O-]` yielded a residual activity of 94.5%.

These compounds were tested against SYK (human) (UniProt P43405) in the same assay as above. Details: compound 0.5 µM; ATP 10 µM.
In the case of `FC(F)(F)c1ccc(/C=C/c2nc(COc3ccc(CCCCn4ccnn4)cc3)co2)cc1`, the residual activity is reported as 97.4%.
`O=c1cc(N2CCOCC2)oc2c(-c3ccccc3)cccc12` showed a residual activity of 99.7%.
For `COc1cc2c(Nc3ccc(Br)cc3F)ncnc2cc1OCC1CCN(C)CC1`, the residual activity was 101%.
`N/C(=N\N=C/c1ccc(-c2cccc([N+](=O)[O-])c2)o1)N[N+](=O)[O-]` gave a residual activity of 91.8%.

What follows are compounds tested against NEK1 (human) (UniProt Q96PY6) in the same assay as above. Details: compound 0.5 µM; ATP 10 µM.
With `FC(F)(F)c1ccc(/C=C/c2nc(COc3ccc(CCCCn4ccnn4)cc3)co2)cc1` the residual activity was 94.5%.
For `CN[C@@H]1C[C@H]2O[C@@](C)([C@@H]1OC)n1c3ccccc3c3c4c(c5c6ccccc6n2c5c31)C(=O)NC4`, the residual activity was 3.99%.
`O=c1cc(N2CCOCC2)oc2c(-c3ccccc3)cccc12` gave a residual activity of 86.7%.
`COc1cc2c(Nc3ccc(Br)cc3F)ncnc2cc1OCC1CCN(C)CC1` was tested, and the residual activity was 123%.
`N/C(=N\N=C/c1ccc(-c2cccc([N+](=O)[O-])c2)o1)N[N+](=O)[O-]` was tested, and the residual activity was 97.7%.

These compounds were tested against CDK6 CCND1 (human) (UniProt Q00534+P24385) in the same assay as above. Details: compound 0.5 µM; ATP 10 µM.
Sequence of CDK6 CCND1 (human) (P24385 whole entry, looked up): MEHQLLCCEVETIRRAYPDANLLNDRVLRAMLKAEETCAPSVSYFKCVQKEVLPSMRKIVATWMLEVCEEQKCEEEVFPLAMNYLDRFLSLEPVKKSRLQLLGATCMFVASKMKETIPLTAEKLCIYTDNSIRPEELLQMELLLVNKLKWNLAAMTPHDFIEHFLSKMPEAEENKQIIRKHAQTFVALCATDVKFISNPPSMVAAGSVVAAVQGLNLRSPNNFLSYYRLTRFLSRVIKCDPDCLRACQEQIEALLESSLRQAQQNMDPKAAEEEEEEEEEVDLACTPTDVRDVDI
Sequence of CDK6 CCND1 (human) (Q00534 whole entry, looked up): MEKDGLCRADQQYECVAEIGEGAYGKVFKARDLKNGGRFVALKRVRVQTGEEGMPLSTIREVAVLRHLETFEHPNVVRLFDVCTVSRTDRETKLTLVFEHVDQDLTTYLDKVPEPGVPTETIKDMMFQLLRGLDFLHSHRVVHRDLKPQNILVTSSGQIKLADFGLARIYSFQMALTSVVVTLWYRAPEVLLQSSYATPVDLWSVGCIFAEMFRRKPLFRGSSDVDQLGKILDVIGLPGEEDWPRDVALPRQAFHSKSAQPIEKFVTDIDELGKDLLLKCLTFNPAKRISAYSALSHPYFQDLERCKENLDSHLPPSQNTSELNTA
`FC(F)(F)c1ccc(/C=C/c2nc(COc3ccc(CCCCn4ccnn4)cc3)co2)cc1` was tested, and the residual activity was 95.4%.
`O=c1cc(N2CCOCC2)oc2c(-c3ccccc3)cccc12` showed a residual activity of 97.9%.
`COc1cc2c(Nc3ccc(Br)cc3F)ncnc2cc1OCC1CCN(C)CC1` showed a residual activity of 98.7%.
`N/C(=N\N=C/c1ccc(-c2cccc([N+](=O)[O-])c2)o1)N[N+](=O)[O-]` showed a residual activity of 100%.

The compounds below were run against CAMK1 (human) (UniProt Q14012) in the same assay as above. Details: compound 0.5 µM; ATP 10 µM.
`FC(F)(F)c1ccc(/C=C/c2nc(COc3ccc(CCCCn4ccnn4)cc3)co2)cc1` showed a residual activity of 105%.
`O=c1cc(N2CCOCC2)oc2c(-c3ccccc3)cccc12` showed a residual activity of 96.7%.
`COc1cc2c(Nc3ccc(Br)cc3F)ncnc2cc1OCC1CCN(C)CC1` was tested, and the residual activity was 81.6%.
In the case of `N/C(=N\N=C/c1ccc(-c2cccc([N+](=O)[O-])c2)o1)N[N+](=O)[O-]`, the residual activity is reported as 106%.

Each compound was assayed against PAK4 (human) (UniProt O96013) in the same assay as above. Details: compound 0.5 µM; ATP 10 µM.
Work on `FC(F)(F)c1ccc(/C=C/c2nc(COc3ccc(CCCCn4ccnn4)cc3)co2)cc1` yielded a residual activity of 107%.
`O=c1cc(N2CCOCC2)oc2c(-c3ccccc3)cccc12` showed a residual activity of 92.8%.
In the case of `COc1cc2c(Nc3ccc(Br)cc3F)ncnc2cc1OCC1CCN(C)CC1`, the residual activity is reported as 90.2%.
Work on `N/C(=N\N=C/c1ccc(-c2cccc([N+](=O)[O-])c2)o1)N[N+](=O)[O-]` yielded a residual activity of 95.3%.

Each compound was assayed against PRKCZ (human) (UniProt Q05513) in the same assay as above. Details: compound 0.5 µM; ATP 10 µM.
In the case of `FC(F)(F)c1ccc(/C=C/c2nc(COc3ccc(CCCCn4ccnn4)cc3)co2)cc1`, the residual activity is reported as 101%.
With `COc1cc2c(Nc3ccc(Br)cc3F)ncnc2cc1OCC1CCN(C)CC1` the residual activity was 97.8%.
`N/C(=N\N=C/c1ccc(-c2cccc([N+](=O)[O-])c2)o1)N[N+](=O)[O-]` showed a residual activity of 90.1%.

The compounds below were run against AKT1 (human) (UniProt P31749) in the same assay as above. Details: compound 0.5 µM; ATP 10 µM.
`FC(F)(F)c1ccc(/C=C/c2nc(COc3ccc(CCCCn4ccnn4)cc3)co2)cc1` gave a residual activity of 93.2%.
In the case of `CN[C@@H]1C[C@H]2O[C@@](C)([C@@H]1OC)n1c3ccccc3c3c4c(c5c6ccccc6n2c5c31)C(=O)NC4`, the residual activity is reported as 7.49%.
For `O=c1cc(N2CCOCC2)oc2c(-c3ccccc3)cccc12`, the residual activity was 95.7%.
With `COc1cc2c(Nc3ccc(Br)cc3F)ncnc2cc1OCC1CCN(C)CC1` the residual activity was 94.7%.
`N/C(=N\N=C/c1ccc(-c2cccc([N+](=O)[O-])c2)o1)N[N+](=O)[O-]` was tested, and the residual activity was 99.7%.

Each compound was assayed against CDK1 CCNB1 (human) (UniProt P06493+P14635) in the same assay as above. Details: compound 0.5 µM; ATP 10 µM.
Work on `FC(F)(F)c1ccc(/C=C/c2nc(COc3ccc(CCCCn4ccnn4)cc3)co2)cc1` yielded a residual activity of 93.8%.
`O=c1cc(N2CCOCC2)oc2c(-c3ccccc3)cccc12` showed a residual activity of 115%.
With `COc1cc2c(Nc3ccc(Br)cc3F)ncnc2cc1OCC1CCN(C)CC1` the residual activity was 102%.
Compound `N/C(=N\N=C/c1ccc(-c2cccc([N+](=O)[O-])c2)o1)N[N+](=O)[O-]` has a residual activity of 87.9%.

Each compound was assayed against ADRBK1 (human) (UniProt P25098) in the same assay as above. Details: compound 0.5 µM; ATP 10 µM.
Compound `FC(F)(F)c1ccc(/C=C/c2nc(COc3ccc(CCCCn4ccnn4)cc3)co2)cc1` has a residual activity of 113%.
For `O=c1cc(N2CCOCC2)oc2c(-c3ccccc3)cccc12`, the residual activity was 106%.
`COc1cc2c(Nc3ccc(Br)cc3F)ncnc2cc1OCC1CCN(C)CC1` showed a residual activity of 92.2%.
`N/C(=N\N=C/c1ccc(-c2cccc([N+](=O)[O-])c2)o1)N[N+](=O)[O-]` gave a residual activity of 98.9%.

Source: the kinase profiling compilation of Christmann-Franck et al. (2016)
